Data reported in US7589078B2, “Anti-viral nucleoside analogs and methods for treating viral infections, especially HIV infections” (Yale University, priority 2003, dated 2009).
Entries after “also recorded” stand apart in the source; their conditions may differ. Read-outs that look alike come from different tables or passages of the source.

Key:
[1] = system: HIV; conditions: Maag et al (29), O-Yang et al (32); cited from earlier work
[2] = system: HIV-1 strain IIIB; assay: Antiviral activity in MT-2 cells infected with HIV-1 strain IIIB (MTT); format: cell-based
Protocol: Determination of antiviral activity: Compounds were tested in MT-2 cells infected with HIV-1 strain IIIB essentially as described previously (31). […]. Calculations of the percent protection and isobologram combination studies are described (12).

[3] = system: MT-2 cells; assay: Cellular toxicity, MT-2 cell growth; format: cell-based; conditions: for IC50: Homo sapiens, MT2, MT-2 cells, read-out: ID50: concentration required to inhibit MT-2 cell growth by 50%
Description: (§1) The basic procedures are similar.

[4] = system: mtDNA content of CEM cells; assay: Mitochondrial DNA content in CEM cells (Southern blot); format: cell-based; conditions: for IC50: four days, read-out: Mitochondrial DNA Content ID50
Protocol: Mitochondrial DNA: The effect of nucleoside analogs on mtDNA content was assessed as described previously (2). […] Cells treated with drugs at various concentrations either as single agents or in combination were grown for four days. Cells were then harvested, treated with proteinase K and DNase free RNase. Extracts were applied to nylon membranes and hybridized with an mtDNA probe. After stripping the membrane the load was normalized by rehybridizing the membrane with an Alu probe. Blots were quantitated with a Molecular Dynamics personal densitometer SI with ImageQuaNT analysis software.

[5] = system: H-9 cells; assay: Toxicity in H-9 cells alone and in combination (Coulter Counter); format: cell-based; conditions: for Percent of Untreated Controls: H-9 cells, 48 h
Description: as §1

[6] = biological target: T1, thymidine phosphorylase (TP) (Homo sapiens, UniProt P19971); assay: Thymidine phosphorylase assay; format: in vitro ADME; conditions: partially purified TP from human liver
T1 construct: using a partially purified prepartion of human liver extract (28) as a source of the thymidine phosphorylase (TP); from tissue; host or cells: human liver extract, partially purified
T1 sequence (P19971 11-482): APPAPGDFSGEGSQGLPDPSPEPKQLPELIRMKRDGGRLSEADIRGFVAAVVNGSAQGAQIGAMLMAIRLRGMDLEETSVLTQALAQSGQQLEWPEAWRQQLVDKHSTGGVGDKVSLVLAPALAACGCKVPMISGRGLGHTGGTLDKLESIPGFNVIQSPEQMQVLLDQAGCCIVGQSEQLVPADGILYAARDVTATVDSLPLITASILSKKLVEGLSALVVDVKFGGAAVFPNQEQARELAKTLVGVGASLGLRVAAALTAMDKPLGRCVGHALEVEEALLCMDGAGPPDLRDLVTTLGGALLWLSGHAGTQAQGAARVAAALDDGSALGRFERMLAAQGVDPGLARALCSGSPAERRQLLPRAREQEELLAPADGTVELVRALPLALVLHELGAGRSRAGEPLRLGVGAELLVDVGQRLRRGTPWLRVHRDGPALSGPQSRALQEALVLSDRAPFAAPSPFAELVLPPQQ
Protocol: Thymidine Phosphorylase Assays: Nucleoside analogs (100 μM) were incubated in 75 mM potassium phosphate buffer pH 7.3 at 37° C. using a partially purified prepartion of human liver extract (28) as a source of the thymidine phosphorylase (TP). After incubation, the reaction was stopped by the addition of trichloroacetic acid to a final concentration of 15%. The samples were then incubated on ice. After the acid insoluble components were removed by centrifugation, the supernatant was neutralized by two extractions with one half volume of trioctylamine/freon (45:55). The aqueous supernatants were examined by HPLC using the Beckman ODS column method, as described in Acid Stability Studies.

[7] = Acid stability study; format: physicochemical; conditions: 1N HCl, pH 1, 37° C., 2.5 h, HPLC
Protocol: Acid stability studies: Nucleoside samples were mixed with 1N HCl and incubated at 37° C. for 2.5 h. Then the samples were examined by HPLC using a Bechman ODS column employing a gradient of water to 80% methanol.

[8] = system: HIV-1 strain IIIB; conditions: MT-2 cells; EC50 reported previously (17); read-out: EC50: effective concentration required to achieve 50% protection from HIV in MT-2 cells; cited from earlier work
[9] = system: CEM cells; assay: Cellular toxicity in CEM cells (cell counts); conditions: for IC50: Homo sapiens, CCRF-CEM, 96 h, read-out: Cellular ID50
Protocol: The basic procedures are similar. The cells are seeded a low concentration, then serial dilutions of test compound are added. […] After 48 to 96 h incubation at 37° C. in a 5% CO2 humidified incubator the assay is ended. The drug treated samples are compared to the untreated controls. This is accomplished in suspension cell lines by counting cell numbers either with a hemocytometer or by using a Coulter Counter.
The numbers in parentheses represent the mean and standard deviations of percentage of untreated CEM control cells at the concentration indicated.

[10] = biological target: T2, thymidine kinase (TK-1) (Homo sapiens, UniProt P04183); assay: Thymidine kinase assay with added nucleoside ([14C]-dThd to dTMP); conditions: [14C]-dThd 25 μM, added nucleoside 250 μM; compared to reactions with no additions
T2 sequence (P04183 1-234): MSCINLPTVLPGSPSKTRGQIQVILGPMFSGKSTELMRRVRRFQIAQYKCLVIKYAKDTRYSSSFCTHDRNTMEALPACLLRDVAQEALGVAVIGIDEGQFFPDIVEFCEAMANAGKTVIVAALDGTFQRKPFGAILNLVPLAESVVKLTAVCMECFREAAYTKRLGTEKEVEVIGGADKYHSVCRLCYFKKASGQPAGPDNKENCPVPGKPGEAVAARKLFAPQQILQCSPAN
Protocol: After two additional washes in ethanol, the discs were dried and placed in scintillation vials that contained 5 ml SafeScint Scintillation Cocktail (American Bioanalytical, Natick, Mass.). The amount of radioactivity, which represents the amount of dTMP formed, was quantitated in a Beckman LS5000TD Scintillation Counter (Beckman Instruments Inc., Palo Alto, Calif.).

[11] = biological target: T2, thymidine kinase (TK-1); assay: Monophosphorylation of analogs by thymidine kinase; format: biochemical; parameters: phosphorylated by thymidine kinase (TK-1) from CEM cells; endogenous in cells; conditions: for Relative Vmax: 250 μM dThd or analog, 2.4 mM ATP, 0.07 unit TK-1, 37° C., 285 min, dThd = 100
Protocol: Monophosphorylation of Analogs by Thymidine Kinase: All the analogs were tested for their ability to be phosphorylated by thymidine kinase (TK-1) from CEM cells. This enzyme was purified by an affinity column technique developed in this laboratory (7). […] At the end of the incubation time the reaction was stopped by the addition of 3 parts cold HPLC grade methanol. After incubating on ice for at least 10 min. the methanol insoluble material is precipitated by centrifugation and the methanol soluble supernatants were placed into clean microfuge tubes. These samples were brought to dryness in a Speedvac Centrifuge. The samples were dissolved in water and separated on a Shimatzu HPLC model SCL 10Avp using a gradient of water to 300 mM potassium phosphate and a Whatman 10/25 particle SAX column. Km and relative Vmax studies were done in a similar fashion, using the same mixture and different amounts of substrate and enzyme.

[12] = system: CEM cellular extract supplemented with partially purified TK-1 and recombinant human dTMP kinase; assay: Phosphorylation to triphosphate in CEM cellular extract with TK-1 and dTMP kinase; format: biochemical; conditions: unpublished results
[13] = substrate: Cc1cn([C@H]2C=C[C@@H](CO)O2)c(=O)[nH]c1=O; assay: purified protein, by the assay type; conditions: other: phosphorylation by human cytoplasmic thymidine kinase; pH 7.5; 37.0 °C
[14] = substrate: C#C[C@@]1(CO)C=C[C@H](n2cc(C)c(=O)[nH]c2=O)O1; assay: Monophosphorylation of analogs by thymidine kinase; format: biochemical; conditions: other: phosphorylation by human cytoplasmic thymidine kinase; pH 7.5
Protocol: Monophosphorylation of Analogs by Thymidine Kinase: All the analogs were tested for their ability to be phosphorylated by thymidine kinase (TK-1) from CEM cells. […] At the end of the incubation time the reaction was stopped by the addition of 3 parts cold HPLC grade methanol. After incubating on ice for at least 10 min. the methanol insoluble material is precipitated by centrifugation and the methanol soluble supernatants were placed into clean microfuge tubes. These samples were brought to dryness in a Speedvac Centrifuge. The samples were dissolved in water and separated on a Shimatzu HPLC model SCL 10Avp using a gradient of water to 300 mM potassium phosphate and a Whatman 10/25 particle SAX column. Km and relative Vmax studies were done in a similar fashion, using the same mixture and different amounts of substrate and enzyme.

Q: With `Cc1cn([C@H]2C=C[C@](CO)(N=[N+]=[N-])O2)c(=O)[nH]c1=O` [4′-azido D4T] as the molecule, how does the “Anti-HIV activity as described by others” value [1] read?
A: The value was “inactive against HIV at non-toxic levels”.

Q: What does the source list for `C#C[C@@]1(CO)C=C[C@H](n2cc(C)c(=O)[nH]c2=O)O1` [4′-ethynyl D4T, 2′,3′-didehydro-3′-deoxy-4′-ethynylthymidine]?
A: EC50 ([2]; Human immunodeficiency virus 1, MT2, MT-2/HIV IIIB system, FIG. 10, read-out: EC50 for single agents (isobologram study)): 0.5 µM; Anti-HIV activity compared with D4T ([2]; MT-2/IIIB anti HIV-1 system, FIG. 8): more effective against HIV; Effect of addition of dCyd on the antiviral activity ([2]; dCyd 10 μM in the presence of THU 5 μM, FIG. 9): no significant effect; Effect of addition of dThd on the antiviral activity ([2]; dThd 10 μM and 1 μM added to standard antiviral assay, FIG. 9): decreased the antiviral effect; Antiviral interaction in combination (isobologram) ([2]; in combination with 3TC): synergistic; Antiviral interaction in combination (isobologram) ([2]; in combination with AZT (data not shown)): only additive; Antiviral interaction in combination (isobologram) ([2]; in combination with LFd4C): synergistic; Antiviral interaction in combination (isobologram) ([2]; in combination with ddI (data not shown)): only additive; IC50 [3]: > 256 µM; Toxicity compared with D4T ([3]; MT-2/IIIB system): less toxic than the parental compound D4T; IC50 ([4]; Homo sapiens, CCRF-CEM, 96 h): > 100 µM; Mitochondrial DNA content, percentage of untreated CEM control cells ([4]; at 100 μM): 94 ± 4%; IC50 [4]: 100 µM; Toxic interaction on cell growth in combination with 3TC and LFd4C ([5]; H9 cells, 48 h assay): no significant increase in toxic interactions; Percent of Untreated Controls ([5]; 25 μM 4′-ethynyl D4T plus 5 μM 3TC): 98 ± 2%; Percent of Untreated Controls ([5]; 25 μM 4′-ethynyl D4T plus 5 μM LFd4C): 62 ± 3%; Percent of Untreated Controls ([5]; 25 μM 4′-ethynyl D4T plus 10 μM LFd4C): 58 ± 4%; Percent of Untreated Controls ([5]; 25 μM 4′-ethynyl D4T plus 20 μM 3TC): 88 ± 3%; Percent of Untreated Controls ([5]; 25 μM 4′-ethynyl D4T plus 100 μM 3TC): 85 ± 3%; Percent of Untreated Controls ([5]; 25 μM 4′-ethynyl D4T, no additive): 97 ± 7%; Percent of Untreated Controls ([5]; 50 μM 4′-ethynyl D4T plus 5 μM 3TC): 99 ± 10%; Percent of Untreated Controls ([5]; 50 μM 4′-ethynyl D4T plus 5 μM LFd4C): 72 ± 5%; Percent of Untreated Controls ([5]; 50 μM 4′-ethynyl D4T plus 10 μM LFd4C): 64 ± 5%; Percent of Untreated Controls ([5]; 50 μM 4′-ethynyl D4T plus 20 μM 3TC): 87 ± 6%; Percent of Untreated Controls ([5]; 50 μM 4′-ethynyl D4T plus 100 μM 3TC): 84 ± 6%; Percent of Untreated Controls ([5]; 50 μM 4′-ethynyl D4T, no additive): 102 ± 6%; Break down by thymidine phosphorylase ([6]; 100 μM nucleoside, 37° C., FIG. 11): below the detection level; Stability at pH 1 [7]: No detectable breakdown; EC50 [8]: 0.25 ± 0.14 µM; Cell count, percentage of untreated CEM control cells ([9]; CEM cells, at 100 μM): 77 ± 16%; IC50 [9]: > 100 µM; Percent of Activity [10]: 83.9 ± 6.1%; Relative Vmax [11]: 3.8 ± 0.8; Rate of phosphorylation by TK-1, in words ([11]; purified human TK-1): superior to D4T; also recorded: twice as fast as D4T

Q: For `Cc1cn([C@H]2C=C[C@@H](CO)O2)c(=O)[nH]c1=O` [D4T, 2′,3′-Didehydro-3′-deoxythymidine, reference compound], which EC50 ([2]; Human immunodeficiency virus 1, IIIB, MT2, read-out: EC50: effective concentration required to achieve 50% protection from HIV in MT-2 cells) is on record?
A: Its EC50 is 1.3 ± 0.4 µM.

Q: And the EC50 ([2]; Human immunodeficiency virus 1, IIIB, MT2, read-out: EC50 for single agents (isobologram study))?
A: Its EC50 is 1.4 µM.

Q: And the IC50 [3]?
A: Its IC50 is 98 ± 10.8 µM.

Q: What about the IC50 ([4]; Homo sapiens, CCRF-CEM, 96 h) of the same molecule?
A: Its IC50 is 9.3 ± 1.4 µM.

Q: And the “Break down by thymidine phosphorylase, times slower than dThd” value [6]?
A: Its value is “at least 10 times”.

Q: And the “Stability at pH 1” value [7]?
A: Its value is “No detectable breakdown”.

Q: And the “Phosphorylation to the triphosphate metabolite” value [12]?
A: The value was “more efficiently phosphorylated to the triphosphate metabolite than 4′-ethynyl D4T”.

Q: What about the IC50 [9] of the same molecule?
A: The IC50 was 60 ± 18 µM.

Q: And the “Percent of Activity” value [10]?
A: The value was 106.3 ± 7.7%.

Q: What about the “Relative Vmax” value [11] of the same molecule?
A: The value was 2.1 ± 0.7.

Q: What about the “Rate of conversion to the monophosphate form” value ([11]; purified human TK-1) of the same molecule?
A: The value was “approximately 2% of dThd”.

B1: thymidine kinase (TK-1) (Homo sapiens) (protein)
chain: T2 sequence (P04183 1-234)
notes: phosphorylated by thymidine kinase (TK-1) from CEM cells; endogenous in cells
Q: What does the source list for B1?
A: Km [13]: 133 µM; Km [14]: 52 µM
